The source of these data is US20240300932A1, “N-PHENYLIMINE DERIVATIVE AND PREPARATION METHOD AND USE THEREOF” (Guizhou University, priority 2023, published 2024).

Molecules are shown by their SMILES.

Common to all, as to test: Post-emergence herbicidal activity test (stem and leaf spray, pot culture)
Type in all cases: in vivo
Details in all cases: 3 weeks after spraying

The test system of assay [1] is Abutilon theophrasti. The method, boiled down: (§1)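 Seeds soaked 6 h at 25 °C, germinated at 28 °C, sown in loam pots and thinned to 10 plants/pot. At 2–3 leaves, plants received a single spray-tower application of 10, 5 or 2.5 g/mu. Fresh-weight control was graded 0–5 after 3 weeks.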
For assay [2], the system named is Amaranthus retroflexus. The method, boiled down:
as §1

Assay [3] relates to Echinochloa crusgalli. Put shortly:
as §1

The test system of assay [4] is Portulaca oleracea. Put shortly: as §1
The subject of assay [5] is Setaria viridis. The method, boiled down:
as §1

Assay [6] relates to Trifoliumre pensL. Put shortly: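 Pot-grown weeds in loam (pH 7), greenhouse at 20–30 °C, sprayed once post-emergence at the 2–3-leaf stage. Compound in acetone with Tween 80 plus methyl oleate oil (1.5 L/ha), applied at 10, 5 and 2.5 g/mu by spray tower. Effect scored 3 weeks after spraying, averaged over three repeats.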

Consider `O=C1C2=C(CCCC2)C(=O)N1c1cc(OCc2nc(-c3ccc(Br)cc3Br)no2)c(Cl)cc1F` [Compound A11], for which the “Post-emergence herbicidal activity, A. theophrasti (grade)” value in assay [1] (dosage 2.5 g/mu), in assay [1] (dosage 5 g/mu) and in assay [1] (dosage 10 g/mu) was 5 (Grade 5: the growth control rate is greater than or equal to 85%) in each case. The “Post-emergence herbicidal activity, A. retroflexus (grade)” value in assay [2] (dosage 2.5 g/mu), in assay [2] (dosage 5 g/mu) and in assay [2] (dosage 10 g/mu) was 5 (Grade 5: the growth control rate is greater than or equal to 85%) throughout. For the same compound, the “Post-emergence herbicidal activity, E. crusgalli (grade)” value was 1 (Grade 1: the growth control rate is greater than or equal to 5% and less than 20%) in assay [3] (dosage 2.5 g/mu); 2 (Grade 2: the growth control rate is greater than or equal to 20% and less than 40%) in assay [3] (dosage 5 g/mu); 3 (Grade 3: the growth control rate is greater than or equal to 40% and less than 60%) in assay [3] (dosage 10 g/mu). Further, the “Post-emergence herbicidal activity, P. oleracea (grade)” value in assay [4] (dosage 2.5 g/mu) was 4 (Grade 4: the growth control rate is greater than or equal to 60% and less than 85%); in assay [4] (dosage 5 g/mu), 5 (Grade 5: the growth control rate is greater than or equal to 85%); in assay [4] (dosage 10 g/mu), 5 (Grade 5: the growth control rate is greater than or equal to 85%). In addition, the “Post-emergence herbicidal activity, S. viridis (grade)” value is 2 (Grade 2: the growth control rate is greater than or equal to 20% and less than 40%) in assay [5] (dosage 2.5 g/mu); 3 (Grade 3: the growth control rate is greater than or equal to 40% and less than 60%) in assay [5] (dosage 5 g/mu); 4 (Grade 4: the growth control rate is greater than or equal to 60% and less than 85%) in assay [5] (dosage 10 g/mu). The “Post-emergence herbicidal activity, Trifoliumre pensL. (grade)” value in assay [6] (dosage 2.5 g/mu) is 4 (Grade 4: the growth control rate is greater than or equal to 60% and less than 85%); in assay [6] (dosage 5 g/mu), 5 (Grade 5: the growth control rate is greater than or equal to 85%); in assay [6] (dosage 10 g/mu), 5 (Grade 5: the growth control rate is greater than or equal to 85%).
